What was measured:
[1] = AUC in human at 600 mg, po BID after 12 hrs; type: ADME, organism-based; parameters: dose 600 mg, time < 12 hr, route oral; conditions: in vivo
[2] = Drug concentration at steady state in human at 600 mg, po BID after 12 hrs; type: ADME, organism-based; conditions: in vivo, read-out: Css
[3] = biological target: ATP-binding cassette sub-family C member 3 (Homo sapiens, UniProt O15438); experiment: Inhibition of human MRP3 overexpressed in Sf9 insect cell membrane vesicles assessed as uptake of [3H]-estradiol-17beta-D-glucuronide in presence of ATP and GSH measured after 10 mins by membrane vesicle transport assay; type: ADME, cell-based
[4] = Ratio of drug concentration at steady state in human at 600 mg, po QD after 24 hrs to IC50 for human BSEP overexpressed in Sf9 insect cells; type: ADME, organism-based; conditions: in vivo
[5] = biological target: ATP-binding cassette sub-family C member 2 (Homo sapiens, UniProt Q92887); experiment: Inhibition of human MRP2 overexpressed in Sf9 cell membrane vesicles assessed as uptake of [3H]-estradiol-17beta-D-glucuronide in presence of ATP and GSH measured after 20 mins by membrane vesicle transport assay
[6] = biological target: T1, ATP-binding cassette sub-family C member 4 (Homo sapiens, UniProt O15439); experiment: Inhibition of human MRP4 overexpressed in Sf9 cell membrane vesicles assessed as uptake of [3H]-estradiol-17beta-D-glucuronide in presence of ATP and GSH measured after 20 mins by membrane vesicle transport assay; type: ADME, cell-based
T1 sequence (O15439 whole entry): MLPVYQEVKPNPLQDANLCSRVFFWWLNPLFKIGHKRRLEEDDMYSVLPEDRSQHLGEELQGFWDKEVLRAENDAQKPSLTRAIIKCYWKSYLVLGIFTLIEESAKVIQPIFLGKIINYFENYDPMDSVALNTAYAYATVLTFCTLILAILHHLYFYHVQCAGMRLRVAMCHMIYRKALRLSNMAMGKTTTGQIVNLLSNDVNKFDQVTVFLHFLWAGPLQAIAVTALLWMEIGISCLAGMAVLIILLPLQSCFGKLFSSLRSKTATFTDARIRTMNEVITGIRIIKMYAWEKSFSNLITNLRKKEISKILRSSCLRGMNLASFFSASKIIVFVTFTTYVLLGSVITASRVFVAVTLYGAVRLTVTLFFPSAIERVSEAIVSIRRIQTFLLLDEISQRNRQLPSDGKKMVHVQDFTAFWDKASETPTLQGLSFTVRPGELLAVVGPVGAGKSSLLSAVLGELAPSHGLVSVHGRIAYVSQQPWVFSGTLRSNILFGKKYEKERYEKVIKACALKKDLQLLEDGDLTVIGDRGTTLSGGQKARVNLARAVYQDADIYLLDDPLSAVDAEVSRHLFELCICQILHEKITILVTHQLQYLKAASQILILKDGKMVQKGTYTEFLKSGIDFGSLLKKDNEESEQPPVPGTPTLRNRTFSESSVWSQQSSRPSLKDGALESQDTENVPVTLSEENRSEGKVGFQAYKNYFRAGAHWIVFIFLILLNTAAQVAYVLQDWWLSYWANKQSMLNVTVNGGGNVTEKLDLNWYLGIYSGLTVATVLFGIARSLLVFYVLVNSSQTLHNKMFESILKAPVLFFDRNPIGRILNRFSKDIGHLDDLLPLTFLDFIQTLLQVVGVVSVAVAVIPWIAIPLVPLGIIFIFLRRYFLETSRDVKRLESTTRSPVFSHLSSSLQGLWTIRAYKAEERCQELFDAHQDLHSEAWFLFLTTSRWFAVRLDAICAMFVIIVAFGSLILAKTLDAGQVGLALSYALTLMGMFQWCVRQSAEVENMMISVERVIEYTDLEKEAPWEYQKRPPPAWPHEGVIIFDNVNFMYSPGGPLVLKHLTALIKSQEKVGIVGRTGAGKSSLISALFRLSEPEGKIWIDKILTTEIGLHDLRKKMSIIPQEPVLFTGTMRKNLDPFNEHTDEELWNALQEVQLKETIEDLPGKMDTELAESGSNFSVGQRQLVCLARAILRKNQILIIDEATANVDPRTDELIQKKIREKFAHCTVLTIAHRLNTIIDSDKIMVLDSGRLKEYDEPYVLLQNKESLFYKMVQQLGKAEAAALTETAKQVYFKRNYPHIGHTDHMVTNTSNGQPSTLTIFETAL

[7] = AUC in human at 600 mg, po QD after 24 hrs; type: ADME, organism-based; parameters: time < 24 hr, dose 600 mg, route oral; conditions: in vivo
[8] = biological target: Bile salt export pump (Homo sapiens, UniProt O95342); experiment: Inhibition of human BSEP overexpressed in Sf9 cell membrane vesicles assessed as uptake of [3H]-taurocholate in presence of ATP measured after 15 to 20 mins by membrane vesicle transport assay; type: ADME, cell-based
[9] = Drug concentration at steady state in human at 600 mg, po QD after 24 hrs; type: ADME, organism-based; conditions: in vivo, read-out: Css
[10] = Ratio of drug concentration at steady state in human at 1 to 1.5 g, po BID after 12 hrs to IC50 for human MRP4 overexpressed in Sf9 insect cells; type: ADME, organism-based; conditions: in vivo
[11] = Drug concentration at steady state in human at 1 to 1.5 g, po BID after 12 hrs; type: ADME, organism-based; conditions: in vivo, read-out: Css
[12] = AUC in human at 1 to 1.5 g, po BID after 12 hrs; type: ADME, organism-based; conditions: in vivo
[13] = Ratio of drug concentration at steady state in human at 1 to 1.5 g, po BID after 12 hrs to IC50 for human BSEP overexpressed in Sf9 insect cells; type: ADME, organism-based; conditions: in vivo
[14] = Drug concentration at steady state in human at 50 ug, sc BID/TID co-treated with 50 to 500 ug, sc TID of sandostatin LAR measured after 8 hrs; type: ADME, organism-based; conditions: in vivo, read-out: Css
[15] = Ratio of drug concentration at steady state in human at 50 ug, sc BID/TID co-treated with 50 to 500 ug, sc TID of sandostatin LAR measured after 8 hrs to IC50 for human BSEP overexpressed in Sf9 insect cells; type: ADME, organism-based; conditions: in vivo
[16] = AUC in human at 50 ug, sc BID/TID co-treated with 50 to 500 ug, sc TID of sandostatin LAR measured after 8 hrs; type: ADME, organism-based; parameters: dose 50 ug, time < 8 hr, route subcutaneous; conditions: in vivo
[17] = system: Homo sapiens; experiment: Drug concentration at steady state in human at 135 to 175 mg/m2, iv administered as infusion for 3 or 24 hrs measured after 1 hr; type: ADME, organism-based; conditions: in vivo
[18] = AUC in human at 135 to 175 mg/m2, iv administered as infusion for 3 or 24 hrs measured after 1 hr; type: ADME, organism-based; parameters: time < 1 hr, route intravenous; conditions: in vivo
[19] = AUC in patient with osteomyelitis at 1500 mg, po QD after 24 hrs; type: ADME, organism-based; parameters: time < 24 hr, dose 1500 mg, route oral; conditions: human, in vivo
[20] = Ratio of drug concentration at steady state in patient with osteomyelitis at 1500 mg, po QD after 24 hrs to IC50 for human BSEP overexpressed in Sf9 insect cells; type: ADME, organism-based; conditions: in vivo
[21] = Drug concentration at steady state in patient with osteomyelitis at 1500 mg, po QD after 24 hrs; type: ADME, organism-based; conditions: human, in vivo, read-out: Css

ATP-binding cassette sub-family C member 2, sequence (Q92887 whole entry): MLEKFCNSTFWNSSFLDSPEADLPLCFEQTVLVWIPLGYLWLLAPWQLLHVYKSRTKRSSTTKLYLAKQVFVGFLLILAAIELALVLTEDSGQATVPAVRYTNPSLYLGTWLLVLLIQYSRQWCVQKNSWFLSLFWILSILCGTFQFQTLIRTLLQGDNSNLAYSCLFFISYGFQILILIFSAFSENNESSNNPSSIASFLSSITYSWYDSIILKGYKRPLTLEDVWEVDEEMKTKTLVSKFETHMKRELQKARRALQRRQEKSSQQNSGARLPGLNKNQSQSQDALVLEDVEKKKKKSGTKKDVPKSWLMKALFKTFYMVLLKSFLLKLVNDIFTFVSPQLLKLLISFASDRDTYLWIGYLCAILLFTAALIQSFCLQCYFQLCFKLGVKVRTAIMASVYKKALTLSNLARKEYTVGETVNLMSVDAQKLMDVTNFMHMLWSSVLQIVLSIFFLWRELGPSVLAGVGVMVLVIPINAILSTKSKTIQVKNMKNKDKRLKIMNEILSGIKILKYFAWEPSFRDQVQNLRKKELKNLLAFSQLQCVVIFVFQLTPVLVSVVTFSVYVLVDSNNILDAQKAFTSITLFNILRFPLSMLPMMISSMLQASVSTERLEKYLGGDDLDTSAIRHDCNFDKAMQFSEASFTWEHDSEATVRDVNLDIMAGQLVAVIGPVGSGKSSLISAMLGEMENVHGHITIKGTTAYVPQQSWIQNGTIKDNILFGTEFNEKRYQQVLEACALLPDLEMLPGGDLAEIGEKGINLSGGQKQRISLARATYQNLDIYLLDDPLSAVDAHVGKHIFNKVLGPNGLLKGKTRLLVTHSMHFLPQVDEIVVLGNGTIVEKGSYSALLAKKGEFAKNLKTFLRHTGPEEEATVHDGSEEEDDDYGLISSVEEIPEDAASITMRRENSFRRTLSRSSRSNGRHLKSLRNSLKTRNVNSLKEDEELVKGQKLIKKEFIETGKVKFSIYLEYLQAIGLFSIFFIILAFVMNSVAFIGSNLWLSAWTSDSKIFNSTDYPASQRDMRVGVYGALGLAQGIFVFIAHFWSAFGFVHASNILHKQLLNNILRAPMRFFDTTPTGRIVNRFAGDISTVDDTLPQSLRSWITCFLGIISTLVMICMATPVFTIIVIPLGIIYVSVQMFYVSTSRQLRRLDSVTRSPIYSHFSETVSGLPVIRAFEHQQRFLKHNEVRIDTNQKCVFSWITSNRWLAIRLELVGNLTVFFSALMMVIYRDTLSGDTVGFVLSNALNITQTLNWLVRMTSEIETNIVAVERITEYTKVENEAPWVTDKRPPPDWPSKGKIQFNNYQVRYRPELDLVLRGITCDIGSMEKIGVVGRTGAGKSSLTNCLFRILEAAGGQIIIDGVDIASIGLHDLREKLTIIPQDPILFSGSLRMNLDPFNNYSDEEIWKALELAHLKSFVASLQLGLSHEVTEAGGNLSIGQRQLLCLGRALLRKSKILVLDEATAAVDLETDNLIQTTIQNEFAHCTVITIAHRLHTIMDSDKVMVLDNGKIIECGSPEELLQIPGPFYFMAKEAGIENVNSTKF
Bile salt export pump, sequence (O95342 whole entry): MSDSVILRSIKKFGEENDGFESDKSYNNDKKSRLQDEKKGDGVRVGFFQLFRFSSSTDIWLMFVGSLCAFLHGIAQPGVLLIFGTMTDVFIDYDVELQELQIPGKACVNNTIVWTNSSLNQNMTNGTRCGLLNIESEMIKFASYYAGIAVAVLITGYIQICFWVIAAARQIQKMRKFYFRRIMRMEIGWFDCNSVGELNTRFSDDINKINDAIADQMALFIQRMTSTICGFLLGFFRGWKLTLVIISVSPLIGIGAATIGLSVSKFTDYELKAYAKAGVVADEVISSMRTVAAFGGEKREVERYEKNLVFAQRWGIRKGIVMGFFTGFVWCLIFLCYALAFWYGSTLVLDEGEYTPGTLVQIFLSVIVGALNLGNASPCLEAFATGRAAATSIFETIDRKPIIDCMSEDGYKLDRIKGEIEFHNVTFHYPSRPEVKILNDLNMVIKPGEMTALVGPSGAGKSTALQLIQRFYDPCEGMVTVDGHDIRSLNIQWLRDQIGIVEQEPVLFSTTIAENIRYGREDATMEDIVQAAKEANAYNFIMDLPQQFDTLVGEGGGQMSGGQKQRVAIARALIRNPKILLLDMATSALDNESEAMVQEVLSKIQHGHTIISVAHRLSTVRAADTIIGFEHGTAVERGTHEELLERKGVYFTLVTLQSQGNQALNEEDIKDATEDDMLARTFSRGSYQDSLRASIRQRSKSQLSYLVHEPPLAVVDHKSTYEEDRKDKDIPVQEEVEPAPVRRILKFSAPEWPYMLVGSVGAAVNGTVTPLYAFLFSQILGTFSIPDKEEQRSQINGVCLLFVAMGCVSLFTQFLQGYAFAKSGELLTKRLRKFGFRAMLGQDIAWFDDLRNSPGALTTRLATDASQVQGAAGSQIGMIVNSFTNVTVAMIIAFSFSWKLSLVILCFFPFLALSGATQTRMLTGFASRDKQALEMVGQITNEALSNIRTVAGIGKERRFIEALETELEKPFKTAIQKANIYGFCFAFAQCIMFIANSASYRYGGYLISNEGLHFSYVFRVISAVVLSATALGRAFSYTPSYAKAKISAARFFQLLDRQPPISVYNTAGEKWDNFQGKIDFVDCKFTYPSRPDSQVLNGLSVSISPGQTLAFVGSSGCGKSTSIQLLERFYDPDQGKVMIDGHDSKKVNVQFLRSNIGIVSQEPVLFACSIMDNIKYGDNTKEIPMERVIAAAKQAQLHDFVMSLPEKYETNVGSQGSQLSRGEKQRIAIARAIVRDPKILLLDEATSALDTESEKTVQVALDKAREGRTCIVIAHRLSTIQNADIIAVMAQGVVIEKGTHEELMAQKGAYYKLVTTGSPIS
ATP-binding cassette sub-family C member 3, sequence (O15438 whole entry): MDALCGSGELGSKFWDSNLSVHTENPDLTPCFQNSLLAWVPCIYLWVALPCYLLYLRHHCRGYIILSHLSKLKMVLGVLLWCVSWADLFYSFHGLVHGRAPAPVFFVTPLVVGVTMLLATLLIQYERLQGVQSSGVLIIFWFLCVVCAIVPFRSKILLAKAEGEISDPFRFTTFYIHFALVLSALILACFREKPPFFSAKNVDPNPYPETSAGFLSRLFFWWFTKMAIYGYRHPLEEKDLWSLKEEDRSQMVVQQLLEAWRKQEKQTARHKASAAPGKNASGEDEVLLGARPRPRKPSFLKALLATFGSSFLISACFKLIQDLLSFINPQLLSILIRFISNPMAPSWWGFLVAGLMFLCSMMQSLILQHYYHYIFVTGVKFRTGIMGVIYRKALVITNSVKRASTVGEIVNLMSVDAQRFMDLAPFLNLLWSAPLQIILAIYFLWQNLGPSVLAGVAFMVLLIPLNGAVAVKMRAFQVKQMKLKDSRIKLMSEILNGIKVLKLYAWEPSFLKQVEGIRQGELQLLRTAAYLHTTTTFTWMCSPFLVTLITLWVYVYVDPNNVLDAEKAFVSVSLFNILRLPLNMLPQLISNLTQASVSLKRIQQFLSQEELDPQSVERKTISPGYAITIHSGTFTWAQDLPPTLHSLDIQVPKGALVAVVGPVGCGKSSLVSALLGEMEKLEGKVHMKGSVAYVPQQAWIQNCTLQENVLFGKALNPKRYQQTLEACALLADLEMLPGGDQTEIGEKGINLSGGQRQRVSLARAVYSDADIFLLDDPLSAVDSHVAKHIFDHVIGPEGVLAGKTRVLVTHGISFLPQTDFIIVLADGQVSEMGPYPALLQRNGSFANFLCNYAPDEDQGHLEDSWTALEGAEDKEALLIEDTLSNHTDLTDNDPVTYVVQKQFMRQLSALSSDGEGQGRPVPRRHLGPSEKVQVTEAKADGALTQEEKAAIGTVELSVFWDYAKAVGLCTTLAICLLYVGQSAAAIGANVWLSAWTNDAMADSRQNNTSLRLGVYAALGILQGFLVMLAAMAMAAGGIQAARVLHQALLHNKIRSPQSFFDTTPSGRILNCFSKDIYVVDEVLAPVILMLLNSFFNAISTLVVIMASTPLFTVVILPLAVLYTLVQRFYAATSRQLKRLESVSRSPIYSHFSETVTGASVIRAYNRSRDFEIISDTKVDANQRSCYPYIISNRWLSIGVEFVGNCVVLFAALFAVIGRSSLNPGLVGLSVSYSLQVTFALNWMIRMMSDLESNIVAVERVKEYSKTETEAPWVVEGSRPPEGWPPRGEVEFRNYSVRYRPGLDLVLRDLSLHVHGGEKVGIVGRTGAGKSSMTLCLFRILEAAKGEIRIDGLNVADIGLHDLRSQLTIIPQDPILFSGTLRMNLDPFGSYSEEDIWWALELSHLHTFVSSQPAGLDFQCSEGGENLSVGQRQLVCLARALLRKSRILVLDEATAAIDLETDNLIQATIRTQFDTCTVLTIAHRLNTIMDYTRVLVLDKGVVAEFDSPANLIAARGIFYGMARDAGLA

Row | SMILES | IC50 [3] [µM] | IC50 [5] [µM] | IC50 [6] [µM] | IC50 [8] [µM] | also measured
1 | CC(C)c1nc(CN(C)C(=O)N[C@H](C(=O)N[C@@H](Cc2ccccc2)C[C@H](O)[C@H](Cc2ccccc2)NC(=O)OCc2cncs2)C(C)C)cs1 [RITONAVIR] | – | – | – | – | AUC at 12 h [1]: 413 µM·h; concentration at 12 h [2]: 34.4 µM
2 | CC#C[C@]1(O)CC[C@H]2[C@@H]3CCC4=CC(=O)CCC4=C3[C@@H](c3ccc(N(C)C)cc3)C[C@@]21C [MIFEPRISTONE] | > 133 | > 133 | > 133 | 2.02 | Ratio [4]: 3.743; AUC at 24 h [7]: 181 µM·h; concentration at 24 h [9]: 7.56 µM
3 | COc1c(C)c2c(c(O)c1C/C=C(\C)CCC(=O)OCCN1CCOCC1)C(=O)OC2 [MYCOPHENOLATE MOFETIL] | > 133 | > 133 | 83 | 76 | Ratio [10]: 45.853; concentration at 12 h [11]: 3810 µM; AUC at 12 h [12]: 45700 ng·h/mL; Ratio [13]: 49.945
4 | CC(=O)O.C[C@@H](O)[C@@H]1NC(=O)[C@H](CCCCN)NC(=O)[C@@H](Cc2c[nH]c3ccccc23)NC(=O)[C@H](Cc2ccccc2)NC(=O)[C@@H](NC(=O)[C@H](N)Cc2ccccc2)CSSC[C@@H](C(=O)N[C@H](CO)[C@@H](C)O)NC1=O [OCTREOTIDE ACETATE] | > 133 | > 133 | > 133 | 9.34 | concentration at 8 h [14]: 5.28 µM; Ratio [15]: 0.565; AUC at 8 h [16]: 42.2 µM·h
5 | CC(=O)O[C@H]1C(=O)[C@@]2(C)[C@H]([C@H](OC(=O)c3ccccc3)[C@]3(O)C[C@H](OC(=O)[C@H](O)[C@@H](NC(=O)c4ccccc4)c4ccccc4)C(C)=C1C3(C)C)[C@]1(OC(C)=O)CO[C@@H]1C[C@@H]2O [PACLITAXEL] | > 133 | > 133 | > 133 | – | Css [17]: 14.759 µM; AUC at 1 h [18]: 14.8 µM·h
6 | CC(=O)O[C@H]1C[C@@]2(C)[C@@H](C[C@@H](O)[C@H]3[C@@]4(C)CC[C@@H](O)[C@@H](C)[C@@H]4CC[C@@]32C)/C1=C(\CCC=C(C)C)C(=O)O [FUSIDIC ACID] | > 133 | > 133 | > 133 | – | AUC at 24 h [19]: 6390 µM·h; Ratio [20]: 26.38; concentration at 24 h [21]: 266 µM

Source: ChEMBL document CHEMBL4028801, “A multifactorial approach to hepatobiliary transporter assessment enables improved therapeutic compound development” (Toxicol Sci, 2013)
